In the supplement of paper PMC6045584:
± gives the standard deviation of the averaged measurements.

Key:
BLEOMYCIN = compound: Cc1c(N)nc([C@H](CC(N)=O)NC[C@H](N)C(N)=O)nc1C(=O)N[C@H](C(=O)N[C@H](C)[C@@H](O)[C@H](C)C(=O)N[C@H](C(=O)NCCc1nc(-c2nc(C(=O)NCCC[S+](C)C)cs2)cs1)[C@@H](C)O)[C@@H](OC1OC(CO)C(O)C(O)C1OC1OC(CO)C(O)C(OC(N)=O)C1O)c1cnc[nH]1 [BLEOMYCIN]; assay: surviving fraction relative to DMSO-only wells; higher = less growth inhibition; conditions: exposure time: 5 days
In short: (§1)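 A line counted only if its three screens reached replicate Pearson r >0.7 and median Z' >0.3. Tumour cells in log phase were seeded at 250–500 per well in 384-well plates and, after 24 hours, kept in continuous contact with inhibitors at 0.5, 1, 5, 10, 50, 100, 500 and 1000 nM for five days. Surviving fraction was taken from CellTiter-Glo luminescence relative to the median of DMSO-only wells.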

[1] = compound: C[C@@H]1CN(CC(=O)Nc2ccc3c(c2)Cc2cccc(-c4cc(=O)cc(N5CCOCC5)o4)c2S3)C[C@H](C)O1; assay: as above; conditions: exposure time: 5 days
In short: as §1

In the case of MDAMB468 BREAST, the surviving fraction (BLEOMYCIN; 0.5 nM) is reported as 0.804 ± 0.036, the surviving fraction (BLEOMYCIN; 1 nM) is reported as 0.863 ± 0.058 and the surviving fraction (BLEOMYCIN; 5 nM) is reported as 0.912 ± 0.044. For the same test system, the surviving fraction (BLEOMYCIN; 10 nM) was 0.932 ± 0.039, the surviving fraction (BLEOMYCIN; 50 nM) was 1.09 ± 0.027 and the surviving fraction (BLEOMYCIN; 100 nM) was 0.989 ± 0.049. It also gave a surviving fraction (BLEOMYCIN; 500 nM) of 0.768 ± 0.035, a surviving fraction (BLEOMYCIN; 1000 nM) of 0.577 ± 0.026 and a surviving fraction ([1]; 0.5 nM) of 0.975 ± 0.015. The surviving fraction ([1]; 1 nM) was 0.921 ± 0.024, the surviving fraction ([1]; 5 nM) was 0.951 ± 0.026 and the surviving fraction ([1]; 10 nM) was 1 ± 0.025. It also gave a surviving fraction ([1]; 50 nM) of 0.935 ± 0.018, a surviving fraction ([1]; 100 nM) of 1 ± 0.091 and a surviving fraction ([1]; 500 nM) of 0.824 ± 0.12. It also gave a surviving fraction ([1]; 1000 nM) of 0.756 ± 0.076.

Test System 22RV1 PROSTATE has a surviving fraction (BLEOMYCIN; 0.5 nM) of 0.962 ± 0.044, a surviving fraction (BLEOMYCIN; 1 nM) of 0.979 ± 0.053 and a surviving fraction (BLEOMYCIN; 5 nM) of 0.962 ± 0.029. For the same test system, the surviving fraction (BLEOMYCIN; 10 nM) was 0.887 ± 0.026, the surviving fraction (BLEOMYCIN; 50 nM) was 0.922 ± 0.0089 and the surviving fraction (BLEOMYCIN; 100 nM) was 0.886 ± 0.051. It also gave a surviving fraction (BLEOMYCIN; 500 nM) of 0.738 ± 0.032, a surviving fraction (BLEOMYCIN; 1000 nM) of 0.573 ± 0.088 and a surviving fraction ([1]; 0.5 nM) of 1.07 ± 0.068. It also gave a surviving fraction ([1]; 1 nM) of 1.07 ± 0.021, a surviving fraction ([1]; 5 nM) of 1.02 ± 0.045 and a surviving fraction ([1]; 10 nM) of 1.04 ± 0.044. For the same test system, the surviving fraction ([1]; 50 nM) was 1.12 ± 0.07, the surviving fraction ([1]; 100 nM) was 1.12 ± 0.074 and the surviving fraction ([1]; 500 nM) was 1.08 ± 0.09. For the same test system, the surviving fraction ([1]; 1000 nM) was 1.08 ± 0.031.

For “JURKAT HAEMATOPOIETIC AND LYMPHOID TISSUE”, the surviving fraction (BLEOMYCIN; 0.5 nM) was 1.01 ± 0.02, the surviving fraction (BLEOMYCIN; 1 nM) was 1.02 ± 0.016 and the surviving fraction (BLEOMYCIN; 5 nM) was 0.986 ± 0.016. For the same test system, the surviving fraction (BLEOMYCIN; 10 nM) was 0.977 ± 0.012, the surviving fraction (BLEOMYCIN; 50 nM) was 0.916 ± 0.017 and the surviving fraction (BLEOMYCIN; 100 nM) was 0.786 ± 0.026. The surviving fraction (BLEOMYCIN; 500 nM) was 0.232 ± 0.0061, the surviving fraction (BLEOMYCIN; 1000 nM) was 0.122 ± 0.0062 and the surviving fraction ([1]; 0.5 nM) was 1.1 ± 0.013. The surviving fraction ([1]; 1 nM) was 1.123 ± 0.0098, the surviving fraction ([1]; 5 nM) was 1.08 ± 0.016 and the surviving fraction ([1]; 10 nM) was 1.09 ± 0.026. It also gave a surviving fraction ([1]; 50 nM) of 1.05 ± 0.026, a surviving fraction ([1]; 100 nM) of 1.03 ± 0.029 and a surviving fraction ([1]; 500 nM) of 1.01 ± 0.018. The surviving fraction ([1]; 1000 nM) was 0.96 ± 0.029.

With HUO3N1 BONE the surviving fraction (BLEOMYCIN; 0.5 nM) was 0.898 ± 0.053, the surviving fraction (BLEOMYCIN; 1 nM) was 0.897 ± 0.0087 and the surviving fraction (BLEOMYCIN; 5 nM) was 0.924 ± 0.016. The surviving fraction (BLEOMYCIN; 10 nM) was 0.908 ± 0.044, the surviving fraction (BLEOMYCIN; 50 nM) was 0.957 ± 0.031 and the surviving fraction (BLEOMYCIN; 100 nM) was 0.892 ± 0.059. For the same test system, the surviving fraction (BLEOMYCIN; 500 nM) was 0.676 ± 0.0053, the surviving fraction (BLEOMYCIN; 1000 nM) was 0.532 ± 0.025 and the surviving fraction ([1]; 0.5 nM) was 1.01 ± 0.026. The surviving fraction ([1]; 1 nM) was 1 ± 0.031, the surviving fraction ([1]; 5 nM) was 1.05 ± 0.041 and the surviving fraction ([1]; 10 nM) was 1.04 ± 0.041. For the same test system, the surviving fraction ([1]; 50 nM) was 1.04 ± 0.023, the surviving fraction ([1]; 100 nM) was 1.03 ± 0.025 and the surviving fraction ([1]; 500 nM) was 0.979 ± 0.027. It also gave a surviving fraction ([1]; 1000 nM) of 0.907 ± 0.026.

With HCC1395 BREAST the surviving fraction (BLEOMYCIN; 0.5 nM) was 0.865 ± 0.04, the surviving fraction (BLEOMYCIN; 1 nM) was 0.881 ± 0.14 and the surviving fraction (BLEOMYCIN; 5 nM) was 0.84 ± 0.1. It also gave a surviving fraction (BLEOMYCIN; 10 nM) of 0.902 ± 0.042, a surviving fraction (BLEOMYCIN; 50 nM) of 0.823 ± 0.12 and a surviving fraction (BLEOMYCIN; 100 nM) of 0.872 ± 0.074. It also gave a surviving fraction (BLEOMYCIN; 500 nM) of 0.761 ± 0.12, a surviving fraction (BLEOMYCIN; 1000 nM) of 0.73 ± 0.065 and a surviving fraction ([1]; 0.5 nM) of 0.955 ± 0.14. The surviving fraction ([1]; 1 nM) was 0.962 ± 0.022, the surviving fraction ([1]; 5 nM) was 0.936 ± 0.062 and the surviving fraction ([1]; 10 nM) was 0.936 ± 0.035. The surviving fraction ([1]; 50 nM) was 0.92 ± 0.072, the surviving fraction ([1]; 100 nM) was 0.995 ± 0.08 and the surviving fraction ([1]; 500 nM) was 0.919 ± 0.09. The surviving fraction ([1]; 1000 nM) was 0.965 ± 0.12.

Work on ZR751 BREAST yielded a surviving fraction (BLEOMYCIN; 0.5 nM) of 0.985 ± 0.037, a surviving fraction (BLEOMYCIN; 1 nM) of 0.975 ± 0.083 and a surviving fraction (BLEOMYCIN; 5 nM) of 0.925 ± 0.1. The surviving fraction (BLEOMYCIN; 10 nM) was 0.957 ± 0.19, the surviving fraction (BLEOMYCIN; 50 nM) was 0.905 ± 0.073 and the surviving fraction (BLEOMYCIN; 100 nM) was 0.924 ± 0.17. It also gave a surviving fraction (BLEOMYCIN; 500 nM) of 0.897 ± 0.15, a surviving fraction (BLEOMYCIN; 1000 nM) of 0.69 ± 0.12 and a surviving fraction ([1]; 0.5 nM) of 1.01 ± 0.1. For the same test system, the surviving fraction ([1]; 1 nM) was 1.08 ± 0.19, the surviving fraction ([1]; 5 nM) was 1.02 ± 0.21 and the surviving fraction ([1]; 10 nM) was 0.959 ± 0.13. It also gave a surviving fraction ([1]; 50 nM) of 0.951 ± 0.035, a surviving fraction ([1]; 100 nM) of 0.956 ± 0.076 and a surviving fraction ([1]; 500 nM) of 1.06 ± 0.24. For the same test system, the surviving fraction ([1]; 1000 nM) was 0.977 ± 0.071.

SNU475 LIVER was tested, and the surviving fraction (BLEOMYCIN; 0.5 nM) was 0.8647 ± 0.0059, the surviving fraction (BLEOMYCIN; 1 nM) was 0.859 ± 0.0092 and the surviving fraction (BLEOMYCIN; 5 nM) was 0.838 ± 0.014. For the same test system, the surviving fraction (BLEOMYCIN; 10 nM) was 0.844 ± 0.024, the surviving fraction (BLEOMYCIN; 50 nM) was 0.8043 ± 0.0023 and the surviving fraction (BLEOMYCIN; 100 nM) was 0.752 ± 0.043. The surviving fraction (BLEOMYCIN; 500 nM) was 0.53 ± 0.025, the surviving fraction (BLEOMYCIN; 1000 nM) was 0.384 ± 0.0084 and the surviving fraction ([1]; 0.5 nM) was 0.97 ± 0.022. The surviving fraction ([1]; 1 nM) was 1.02 ± 0.034, the surviving fraction ([1]; 5 nM) was 1.007 ± 0.0086 and the surviving fraction ([1]; 10 nM) was 1.02 ± 0.027. For the same test system, the surviving fraction ([1]; 50 nM) was 0.876 ± 0.026, the surviving fraction ([1]; 100 nM) was 0.96133 ± 0.00058 and the surviving fraction ([1]; 500 nM) was 0.863 ± 0.04. The surviving fraction ([1]; 1000 nM) was 0.669 ± 0.036.

In the case of SKBR3 BREAST, the surviving fraction (BLEOMYCIN; 0.5 nM) is reported as 0.886 ± 0.19, the surviving fraction (BLEOMYCIN; 1 nM) is reported as 0.721 ± 0.1 and the surviving fraction (BLEOMYCIN; 5 nM) is reported as 0.81 ± 0.16. The surviving fraction (BLEOMYCIN; 10 nM) was 0.768 ± 0.15, the surviving fraction (BLEOMYCIN; 50 nM) was 0.872 ± 0.15 and the surviving fraction (BLEOMYCIN; 100 nM) was 0.889 ± 0.099. It also gave a surviving fraction (BLEOMYCIN; 500 nM) of 0.87 ± 0.11, a surviving fraction (BLEOMYCIN; 1000 nM) of 0.783 ± 0.13 and a surviving fraction ([1]; 0.5 nM) of 1.06 ± 0.013. The surviving fraction ([1]; 1 nM) was 0.979 ± 0.19, the surviving fraction ([1]; 5 nM) was 0.937 ± 0.22 and the surviving fraction ([1]; 10 nM) was 0.939 ± 0.088. It also gave a surviving fraction ([1]; 50 nM) of 0.9 ± 0.16, a surviving fraction ([1]; 100 nM) of 1.05 ± 0.13 and a surviving fraction ([1]; 500 nM) of 0.886 ± 0.07. For the same test system, the surviving fraction ([1]; 1000 nM) was 0.61 ± 0.033.

SCC36 HEADNECK showed a surviving fraction (BLEOMYCIN; 0.5 nM) of 0.763 ± 0.09, a surviving fraction (BLEOMYCIN; 1 nM) of 0.762 ± 0.064 and a surviving fraction (BLEOMYCIN; 5 nM) of 0.726 ± 0.027. It also gave a surviving fraction (BLEOMYCIN; 10 nM) of 0.7173 ± 0.004, a surviving fraction (BLEOMYCIN; 50 nM) of 0.998 ± 0.081 and a surviving fraction (BLEOMYCIN; 100 nM) of 0.907 ± 0.1. It also gave a surviving fraction (BLEOMYCIN; 500 nM) of 0.631 ± 0.011, a surviving fraction (BLEOMYCIN; 1000 nM) of 0.499 ± 0.012 and a surviving fraction ([1]; 0.5 nM) of 0.993 ± 0.025. The surviving fraction ([1]; 1 nM) was 1.02 ± 0.058, the surviving fraction ([1]; 5 nM) was 1.09 ± 0.086 and the surviving fraction ([1]; 10 nM) was 1.03 ± 0.026. For the same test system, the surviving fraction ([1]; 50 nM) was 0.859 ± 0.071, the surviving fraction ([1]; 100 nM) was 0.896 ± 0.031 and the surviving fraction ([1]; 500 nM) was 0.801 ± 0.045. It also gave a surviving fraction ([1]; 1000 nM) of 0.798 ± 0.031.

For CAL72 BONE, the surviving fraction (BLEOMYCIN; 0.5 nM) was 1.03 ± 0.032, the surviving fraction (BLEOMYCIN; 1 nM) was 1.02 ± 0.028 and the surviving fraction (BLEOMYCIN; 5 nM) was 1 ± 0.044. For the same test system, the surviving fraction (BLEOMYCIN; 10 nM) was 1 ± 0.05, the surviving fraction (BLEOMYCIN; 50 nM) was 1.04 ± 0.04 and the surviving fraction (BLEOMYCIN; 100 nM) was 1.01 ± 0.037. The surviving fraction (BLEOMYCIN; 500 nM) was 0.694 ± 0.066, the surviving fraction (BLEOMYCIN; 1000 nM) was 0.556 ± 0.013 and the surviving fraction ([1]; 0.5 nM) was 1.01 ± 0.015. For the same test system, the surviving fraction ([1]; 1 nM) was 1.06 ± 0.03, the surviving fraction ([1]; 5 nM) was 1.03 ± 0.011 and the surviving fraction ([1]; 10 nM) was 1.03 ± 0.021. For the same test system, the surviving fraction ([1]; 50 nM) was 0.955 ± 0.021, the surviving fraction ([1]; 100 nM) was 0.97 ± 0.0097 and the surviving fraction ([1]; 500 nM) was 0.897 ± 0.026. It also gave a surviving fraction ([1]; 1000 nM) of 0.811 ± 0.026.
